11 compounds from ChEMBL document CHEMBL1201862, “PubChem BioAssay data set” (2004) can be followed below.

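Protocol summary: plate cells (96-well), add compound at 5 concentrations, incubate 48 h, interpolate endpoints linearly. The concentration for 50% growth inhibition is given as GI50.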 Calls of active or inactive are those of the source. Cut-off read from the data, not from the text of the source: active = GI50 up to about 1.1 µM and inactive = higher. Where only a bound is given, the exact number is not on record here.

Common to all, as to assay: NCI-60 cell line screen, 48 h
Test [1] relates to 786-0.
Test [2] has as its system COLO 205.
For test [3], the system named is UO-31.
The test system of test [4] is PC-3.
Test [5] relates to HCT-116.
Test [6] relates to RXF 393.
The subject of test [7] is OVCAR-4.
Test [8] concerns A549.
Test [9] concerns SK-MEL-5.
The subject of test [10] is SR.
Test [11] concerns U-251.
The test system of test [12] is RPMI-8226.
In test [13] the test system is SK-OV-3.
In test [14] the test system is SW-620.
Test [15] concerns SK-MEL-28.
The test system of test [16] is A498.
Test [17] has as its system OVCAR-5.
The subject of test [18] is MCF7.
Test [19] concerns HCT-15.
Test [20] relates to HOP-92.

For `Cc1cc(C)cc(Nc2nnc3n2S(=O)(=O)c2cc(C)c(Cl)cc2S3)c1`, the GI50 was 4.94 µM (inactive) in test [1]; 4.72 µM (inactive) in [2]; 7.14 µM (inactive) in [3]; 2.77 µM (inactive) in test [4]; 3.48 µM (inactive) in [5]; 3.03 µM (inactive) in test [6]. Besides, the GI50 is 8.69 µM (inactive) in test [7]; 5.01 µM (inactive) in [8]; 5.92 µM (inactive) in test [9]; 2.09 µM (inactive) in [10]; 3.24 µM (inactive) in test [11]; 2.88 µM (inactive) in test [12]. In addition, the GI50 was 14.3 µM (inactive) in test [13]; 3.45 µM (inactive) in test [14]; 17.6 µM (inactive) in test [15]; 5.09 µM (inactive) in test [16]; 5.35 µM (inactive) in [17]; 3.77 µM (inactive) in [18]. This compound also gave a GI50 in test [19] of 4.37 µM.

Turning to `Cn1nc(-c2ccccc2)c2c(-c3ccccc3)c3cc(Cl)ccc3nc21`, the GI50 is > 100 µM (inactive) in test [1]; > 100 µM (inactive) in test [3]; > 100 µM (inactive) in test [4]; 41.3 µM (inactive) in test [5]; > 100 µM (inactive) in test [6]; > 100 µM (inactive) in test [7]. The GI50 in test [8], in test [9], in test [10], in test [11], in test [12] and in test [13] was > 100 µM (inactive) in each case. Further, the GI50 in test [14] is > 100 µM (inactive); in test [15], > 100 µM (inactive); in test [16] it was > 100 µM (inactive); in [17], > 100 µM (inactive); in test [18], 82 µM (inactive); in test [19], 12.7 µM.

For `O=c1c(C(c2ccc(/C=C/c3ccccc3)cc2)c2c(O)oc3cc(O)ccc3c2=O)c(O)oc2cc(O)ccc12`, the GI50 in [1] is > 100 µM (inactive); in test [2] it was > 100 µM (inactive); in [3] it was 56.9 µM (inactive); in [4], > 100 µM (inactive); in test [5] it was > 100 µM (inactive); in test [6], > 100 µM (inactive). The GI50 was > 100 µM (inactive) in test [7]; > 100 µM (inactive) in test [8]; 21.8 µM (inactive) in test [9]; 2.88 µM (inactive) in [11]; 39.6 µM (inactive) in [12]; 75.2 µM (inactive) in [20]. The GI50 in [13] is > 100 µM (inactive); in test [14] it was 91.8 µM (inactive); in test [15] it was 11.3 µM (inactive); in test [16] it was > 100 µM (inactive); in [17] it was > 100 µM (inactive); in test [18], 49.9 µM (inactive). Besides, the GI50 in test [19] was above 100 µM.

`CCOC(=O)c1nnc2c(C#N)c(-c3ccccc3)c(C)n2c1N`: the GI50 was 56.1 µM (inactive) in test [1]; 32.9 µM (inactive) in test [2]; 33.4 µM (inactive) in test [3]; 82.4 µM (inactive) in test [4]; 42.2 µM (inactive) in [5]; 98.4 µM (inactive) in test [6]. Also, the GI50 is 10.9 µM (inactive) in test [7]; 39.9 µM (inactive) in [8]; 39.9 µM (inactive) in test [9]; 36.1 µM (inactive) in test [10]; 38 µM (inactive) in test [11]; 22.7 µM (inactive) in test [12]. For the same compound, the GI50 in test [13] is 23.9 µM (inactive); in [14] it was 40.6 µM (inactive); in [15], 21.6 µM (inactive); in [16] it was 26.8 µM (inactive); in [17], > 100 µM (inactive); in test [18], 39.4 µM (inactive). The same compound showed a GI50 in test [19] of 37.5 µM.

Turning to `Cc1c(C)c(C)c(CSC(=N)N)c(C)c1C`, the GI50 in test [1] is 15.9 µM (inactive); in test [2] it was 14.9 µM (inactive); in test [3], 6.52 µM (inactive); in test [4], 12.2 µM (inactive); in [5] it was 12.7 µM (inactive); in [6], 17.5 µM (inactive). Further, the GI50 in test [7] is 15.6 µM (inactive); in test [8], 17.2 µM (inactive); in [9], 13.7 µM (inactive); in test [11], 13.6 µM (inactive); in test [12], 12.6 µM (inactive); in test [20], 14 µM (inactive). The GI50 in test [13] is 16 µM (inactive); in [14], 15.6 µM (inactive); in test [15] it was 15.4 µM (inactive); in test [16], 16.2 µM (inactive); in test [17], 14.5 µM (inactive); in test [18] it was 17.1 µM (inactive). Moreover, the GI50 in [19] was 16.2 µM.

As for `N#Cc1c(N2CCN(c3ccc([N+](=O)[O-])cc3)CC2)[n+]([O-])c2ccccc2[n+]1[O-]`, the GI50 is > 100 µM (inactive) in test [1]; > 100 µM (inactive) in test [2]; 0.0155 µM (active) in test [3]; > 100 µM (inactive) in test [4]; > 100 µM (inactive) in test [5]; > 100 µM (inactive) in test [6]. The GI50 in test [7] is > 100 µM (inactive); in test [8], 99.5 µM (inactive); in [9], > 100 µM (inactive); in test [10], 1.28 µM (inactive); in [11] it was 78.2 µM (inactive); in test [12] it was 6.5 µM (inactive). The GI50 in [13] was > 100 µM (inactive); in test [14], > 100 µM (inactive); in test [15], > 100 µM (inactive); in [17] it was > 100 µM (inactive); in [18], > 100 µM (inactive); in test [19], above 100 µM.

On to `N/C(=N\NC(=O)c1nc2ccccc2s1)c1ccccn1`, for which the GI50 in test [1] is 4.33 µM (inactive); in test [2], 4.73 µM (inactive); in test [3] it was 2.26 µM (inactive); in test [4], 9.31 µM (inactive); in test [5], 3.28 µM (inactive); in test [6], 7.96 µM (inactive). Besides, the GI50 was 0.706 µM (active) in test [7]; 3.19 µM (inactive) in test [8]; 4.24 µM (inactive) in test [9]; 4.79 µM (inactive) in test [11]; 2.46 µM (inactive) in test [12]; > 34 µM (inactive) in [20]. The GI50 was 9.79 µM (inactive) in [13]; 6.82 µM (inactive) in test [14]; 43.2 µM (inactive) in [15]; 8.34 µM (inactive) in test [16]; 5.89 µM (inactive) in [17]; 4.39 µM (inactive) in test [18]. For the same compound, in test [19], the GI50 was 2.56 µM.

`N#Cc1ncn(-c2ccccc2)c1N`: the GI50 in test [1], in [2], in test [3], in [4], in test [5] and in [7] was > 100 µM (inactive) in each case. The GI50 in [8], in [9], in [10], in test [11], in test [12] and in test [13] was > 100 µM (inactive) throughout. Also, the GI50 in [14] is > 100 µM (inactive); in test [15], > 100 µM (inactive); in test [16], > 100 µM (inactive); in test [17], > 100 µM (inactive); in [18], > 100 µM (inactive); in test [19] it was above 100 µM.

As for `O=C(O)CC(NC(=O)C(F)(F)F)C(=O)NC1Cc2ccccc2OC1=O` (centres undefined), the GI50 in test [1], in test [3], in [4], in test [6], in test [8] and in [9] was > 100 µM (inactive) throughout. Besides, the GI50 in test [10], in test [11], in [12], in [13], in [14] and in test [15] was > 100 µM (inactive) in each case. The figures for the GI50 in test [17], in test [18] and in test [19] were > 100 µM (inactive), > 100 µM (inactive) and above 100 µM, respectively.

In the case of `Nc1n[n+]([O-])c2cnccc2[n+]1[O-]`, the GI50 in test [1] was 70.6 µM (inactive); in [2] it was 39.6 µM (inactive); in test [3], > 100 µM (inactive); in [4], 36.1 µM (inactive); in test [5], 32.4 µM (inactive); in test [7] it was 56.2 µM (inactive). For the same compound, the GI50 in [8] is 33.9 µM (inactive); in test [9], 16.4 µM (inactive); in test [10], 54.7 µM (inactive); in [11] it was 58.2 µM (inactive); in test [12], > 100 µM (inactive); in [13], > 100 µM (inactive). Also, the GI50 in test [14] was 38.4 µM (inactive); in test [15], 82.4 µM (inactive); in test [17], 52 µM (inactive); in test [18], > 10 µM (inactive); in [19] it was 32 µM.

Take `CN(C(=O)[C@@H](NC(=O)OC(C)(C)C)c1ccccc1)[C@H]1CCCC[C@@H]1N1CCCC1`: the GI50 in test [1], in [2], in test [3], in [4], in test [5] and in test [7] was > 100 µM (inactive) throughout. Also, the GI50 in test [8], in test [9], in [10], in [11], in test [12] and in [13] was > 100 µM (inactive) in each case. For the same compound, the GI50 is > 100 µM (inactive) in test [14]; > 100 µM (inactive) in test [15]; > 100 µM (inactive) in test [16]; > 100 µM (inactive) in test [17]; > 100 µM (inactive) in test [18]; above 100 µM in test [19].
